{
  "source": "patent US20250320194A1",
  "about": "“PHARMACEUTICALLY ACCEPTABLE SALT AND CRYSTAL FORM OF FUSED PYRIDINE RING DERIVATIVE AND PREPARATION METHOD THEREFOR” (Jiangsu Hengrui Pharmaceuticals Co., Ltd., priority 2021, published 2025)",
  "key": {"[1]": {"assay": "Stability under influencing factors (high temperature, high humidity, open, 30 days)"}, "[2]": {"assay": "Hygroscopicity of salt crystal forms (DVS, 25° C.)", "format": "physicochemical", "details": "for Hygroscopicity 0.0% RH-95.0% RH / Hygroscopicity 20.0% RH-80.0% RH: DVS, 25° C.; for Crystal form: after DVS", "procedure": "The test adopts SMS DVS Advantage, at 25° C., with a humidity range of 0 to 95% and a step of 10%. The judgment standard is that the dM/dT of each gradient mass change is less than 0.002%, TMAX is 360 minutes, and the cycle is two times. • 5. Cation chromatography • Instrument model: DIONEX AQUION ion chromatograph, USA • Detection method: conductivity; separation column: IonPac CS16-CG16 • Eluent: MSA 20Mm • Flow rate: 1.0 ml/min • 6. Anion chromatography • Instrument model: DIONEX INTEGRION HPIC ion chromatograph, USA • Detection method: conductivity; separation column: DionexIonPac™-AS11-HC • Eluent: EGC-500-KOH • Flow rate: 1.5 ml/min\nUsing Surface Measurement Systems advantage, at 25° C., the humidity starts from 50%, the humidity range is 0% to 95%, the step is 10%. The judgment standard was that the dM/dT of each gradient mass change is less than 0.002%, TMAX360 min, and the cycle was two times. The hygroscopicity of different salt crystal forms of the compound of formula I was investigated respectively."}, "[3]": {"assay": "Long-term/accelerated stability"}},
  "data": [
    {"smiles": "CC(C)(C#Cc1nc(C(Cc2cc(F)cc(F)c2)NC(=O)Cn2nc(C(F)(F)F)c3c2C(F)(F)C2CC32)c(-c2ccc(Cl)c3c([N-]S(C)(=O)=O)nn(CC(F)(F)F)c23)c2c1CCC2)S(C)(=O)=O.[Na+]", "note": "(stereo not shown) [Crystal form II of the sodium salt]", "values": [
      {"measurement": "physical and chemical stability (conclusion)", "setting": "[1]; 40° C., 60° C., 75% RH and 92.5% RH", "result": "good physical and chemical stability"},
      {"measurement": "Color, properties", "setting": "[1]; 40° C., 5 days", "result": "White solid"},
      {"measurement": "Crystal form", "setting": "[1]; 40° C., 5 days", "result": "Unchanged"},
      {"measurement": "Purity %", "setting": "[1]; 40° C., 5 days, listed as II-crystal form of the sodium salt", "result": 97.88, "unit": "%"},
      {"measurement": "Color, properties", "setting": "[1]; 40° C., 10 days", "result": "White solid"},
      {"measurement": "Crystal form", "setting": "[1]; 40° C., 10 days", "result": "Unchanged"},
      {"measurement": "Purity %", "setting": "[1]; 40° C., 10 days, listed as II-crystal form of the sodium salt", "result": 97.83, "unit": "%"},
      {"measurement": "Color, properties", "setting": "[1]; 40° C., 30 days", "result": "White solid"},
      {"measurement": "Crystal form", "setting": "[1]; 40° C., 30 days", "result": "Unchanged"},
      {"measurement": "Purity %", "setting": "[1]; 40° C., 30 days, listed as II-crystal form of the sodium salt", "result": 97.88, "unit": "%"},
      {"measurement": "Color, properties", "setting": "[1]; 60° C., 5 days", "result": "White solid"},
      {"measurement": "Crystal form", "setting": "[1]; 60° C., 5 days", "result": "Unchanged"},
      {"measurement": "Purity %", "setting": "[1]; 60° C., 5 days, listed as II-crystal form of the sodium salt", "result": 97.86, "unit": "%"},
      {"measurement": "Color, properties", "setting": "[1]; 60° C., 10 days", "result": "White solid"},
      {"measurement": "Crystal form", "setting": "[1]; 60° C., 10 days", "result": "Unchanged"},
      {"measurement": "Purity %", "setting": "[1]; 60° C., 10 days, listed as II-crystal form of the sodium salt", "result": 97.88, "unit": "%"},
      {"measurement": "Color, properties", "setting": "[1]; 60° C., 30 days", "result": "White solid"},
      {"measurement": "Crystal form", "setting": "[1]; 60° C., 30 days", "result": "Unchanged"},
      {"measurement": "Purity %", "setting": "[1]; 60° C., 30 days, listed as II-crystal form of the sodium salt", "result": 97.90, "unit": "%"},
      {"measurement": "Color, properties", "setting": "[1]; 75% RH, 5 days", "result": "White solid"},
      {"measurement": "Crystal form", "setting": "[1]; 75% RH, 5 days", "result": "Unchanged"},
      {"measurement": "Purity %", "setting": "[1]; 75% RH, 5 days, listed as II-crystal form of the sodium salt", "result": 97.84, "unit": "%"},
      {"measurement": "Color, properties", "setting": "[1]; 75% RH, 10 days", "result": "White solid"},
      {"measurement": "Crystal form", "setting": "[1]; 75% RH, 10 days", "result": "Unchanged"},
      {"measurement": "Purity %", "setting": "[1]; 75% RH, 10 days, listed as II-crystal form of the sodium salt", "result": 97.84, "unit": "%"},
      {"measurement": "Color, properties", "setting": "[1]; 75% RH, 30 days", "result": "White solid"},
      {"measurement": "Crystal form", "setting": "[1]; 75% RH, 30 days", "result": "Unchanged"},
      {"measurement": "Purity %", "setting": "[1]; 75% RH, 30 days, listed as II-crystal form of the sodium salt", "result": 97.82, "unit": "%"},
      {"measurement": "Color, properties", "setting": "[1]; 92.5% RH, 5 days", "result": "White solid"},
      {"measurement": "Crystal form", "setting": "[1]; 92.5% RH, 5 days", "result": "Unchanged"},
      {"measurement": "Purity %", "setting": "[1]; 92.5% RH, 5 days, listed as II-crystal form of the sodium salt", "result": 97.84, "unit": "%"},
      {"measurement": "Color, properties", "setting": "[1]; 92.5% RH, 10 days", "result": "White solid"},
      {"measurement": "Crystal form", "setting": "[1]; 92.5% RH, 10 days", "result": "Unchanged"},
      {"measurement": "Purity %", "setting": "[1]; 92.5% RH, 10 days, listed as II-crystal form of the sodium salt", "result": 97.85, "unit": "%"},
      {"measurement": "Color, properties", "setting": "[1]; 92.5% RH, 30 days", "result": "White solid"},
      {"measurement": "Crystal form", "setting": "[1]; 92.5% RH, 30 days", "result": "Unchanged"},
      {"measurement": "Purity %", "setting": "[1]; 92.5% RH, 30 days, listed as II-crystal form of the sodium salt", "result": 97.82, "unit": "%"},
      {"measurement": "Color, properties", "setting": "[1]; Start, 0 days", "result": "White solid"},
      {"measurement": "Purity %", "setting": "[1]; Start, 0 days", "result": 97.76, "unit": "%"},
      {"measurement": "Hygroscopicity 0.0% RH-95.0% RH", "setting": "[2]", "result": 34.16, "unit": "%"},
      {"measurement": "Hygroscopicity 20.0% RH-80.0% RH", "setting": "[2]", "result": 11.61, "unit": "%"},
      {"measurement": "Crystal form", "setting": "[2]", "result": "Unchanged"},
      {"measurement": "Purity %", "setting": "[3]; 4° C., 1 month", "result": 97.83, "unit": "%"},
      {"measurement": "Purity %", "setting": "[3]; 4° C., 2 months", "result": 97.83, "unit": "%"},
      {"measurement": "Purity %", "setting": "[3]; 4° C., 3 months", "result": 97.79, "unit": "%"},
      {"measurement": "Purity %", "setting": "[3]; 4° C., 6 months", "result": 97.77, "unit": "%"},
      {"measurement": "Purity %", "setting": "[3]; 4° C., Start", "result": 97.76, "unit": "%"},
      {"measurement": "Purity %", "setting": "[3]; 25° C., 60% RH, 1 month", "result": 97.82, "unit": "%"},
      {"measurement": "Purity %", "setting": "[3]; 25° C., 60% RH, 2 months", "result": 97.82, "unit": "%"},
      {"measurement": "Purity %", "setting": "[3]; 25° C., 60% RH, 3 months", "result": 97.86, "unit": "%"},
      {"measurement": "Purity %", "setting": "[3]; 25° C., 60% RH, 6 months", "result": 97.79, "unit": "%"},
      {"measurement": "Purity %", "setting": "[3]; 25° C., 60% RH, Start", "result": 97.76, "unit": "%"},
      {"measurement": "Purity %", "setting": "[3]; 40° C., 75% RH, 1 month", "result": 97.81, "unit": "%"},
      {"measurement": "Purity %", "setting": "[3]; 40° C., 75% RH, 2 months", "result": 97.80, "unit": "%"},
      {"measurement": "Purity %", "setting": "[3]; 40° C., 75% RH, 3 months", "result": 97.83, "unit": "%"},
      {"measurement": "Purity %", "setting": "[3]; 40° C., 75% RH, 6 months", "result": 97.76, "unit": "%"},
      {"measurement": "Purity %", "setting": "[3]; 40° C., 75% RH, Start", "result": 97.76, "unit": "%"},
      {"measurement": "physical and chemical stability (conclusion)", "setting": "[3]; long-term accelerated stability conditions for 6 months", "result": "good physical and chemical stability"}
    ]},
    {"smiles": "CC(C)(C#Cc1nc(C(Cc2cc(F)cc(F)c2)NC(=O)Cn2nc(C(F)(F)F)c3c2C(F)(F)C2CC32)c(-c2ccc(Cl)c3c([N-]S(C)(=O)=O)nn(CC(F)(F)F)c23)c2c1CCC2)S(C)(=O)=O.[Na+]", "note": "(stereo not shown) [Crystal form IV of the sodium salt]", "values": [
      {"measurement": "Hygroscopicity 0.0% RH-95.0% RH", "setting": "[2]", "result": 1.03, "unit": "%"},
      {"measurement": "Hygroscopicity 20.0% RH-80.0% RH", "setting": "[2]", "result": 0.45, "unit": "%"},
      {"measurement": "Crystal form", "setting": "[2]", "result": "changed"}
    ]}
  ]
}
